Consider one compound from patent publication US10675286B2, “Heterocyclic compounds and uses thereof” (Infinity Pharmaceuticals, Inc., priority 2014, dated 2020).

A word on the ED50: it is the midpoint of the dose-response relation. Low values mean greater potency, high ones weaker potency.

In series [1] the test system is CT26 colon cancer. The experiment in a line: CT26 colon cancer model. As to conditions: CT26 subcutaneous tumors. Type of series: in vivo, mouse.
Series [2] can be described thus: Tumor growth, Compound BB alone and with 5-FU (FIG. 35). It counts as in vivo.
Series [3] in a line: Dose-exposure proportionality (FIG. 44). The note with it: in vivo.
In series [4] the test system is spleen T cell proliferation. The experiment in a line: Ex vivo T-cell proliferation assay with tumor-derived cells. It counts as cell-based. The note with it: compared to tumor derived cells from vehicle treated mice.
The subject of series [5] is CXCL12-induced T cell migration. The experiment in a line: CXCL12-induced T-cell migration in CLL PBMCs (transwell). Type of series: cell-based. As to conditions: Homo sapiens. The procedure: Specifically, the material used were media (RPMI+0.5% Fetal Bovine Serum+Pen/Strep), total CLL PBMCs (AllCells), CoStar 24-transwell plates ([…]) #3421, BD Cytofix Fixation Buffer (#554655), BD FBS Stain Buffer (BD Biosciences, 554656), Deep 96-well plate (Axygen, P-2ML-SQ-C), rhCXCL12 (R&D, 350-NS-050), CD-19 APC Cy7 (BD #348794 1:20), CD3-PerCPCy5.5 (BD #560835, 1:20), CD5-PE (Biolegend #300608, 1:5), CD4-FITC (BD #561842, 1:20), and CD8-APC (BD #561953, 1:20).
Total CLL human PBMCs were preincubated with Compound AA or BB in media for 45 minutes at 37° C. […] After the 45 minutes of compound preincubation, 500-750K CLL PBMCs were placed in the upper chamber of the transwell insert in a total volume of 100 uL. The cells were allowed to migrate for 2-4 hours at 37° C. The inserts were removed, and 550 uL media from lower chamber were transferred into a deep 96-well plate. The cells were spun at 1280 rpm for 5 minutes and flick media. The cells were resuspended in 400 uL BD Cytofixation buffer and incubated at RT for 10 minutes. 1 mL BD FBS stain buffer was added. The cells were spun at 1280 rpm and fixation buffer was disposed. The cells were resuspended in 100 uL of CD3,4,8,5,19 antibody cocktail made up in BD FBS stain buffer, which was then incubated at room temperature in the dark for 30-60 minutes. 1 mL BD FBS stain buffer was added to each well, which was then spun and flicked. The cells were resuspended in 150 uL FBS stain buffer and transferred to FACS tubes already containing 150 uL FBS stain buffer. Each sample was read on the FACS for 25 seconds. Gate on CD3, 4, 8 and CD19/5 subpopulations individually and calculate average migration index from triplicate samples. See e.g., Borge et al., haematologica 2010, 95(5): 768-775; de Rooij et al., Blood 2012, 119: 2590-2594.

Series [6] concerns CXCL12-induced pAKT in T-cells. The experiment in a line: CXCL12-induced pAKT in T-cells of CLL patient PBMCs. It counts as cell-based, human. An excerpt: There was a tight correlation between the EC50s observed in the CXCL12-induced pAKT assay and the T-cell migration assay.
Series [7] deals with differentiation of myeloid cells into M2 TAMs. The experiment in a line: Murine M2 TAM differentiation (ARG1 levels). Type of series: cell-based, mouse. An excerpt:
High ARG1 (Arginase-1) levels indicate that myeloid cells are differentiating into M2 macrophages, so lower ARG1 levels relative to a control indicate interference with differentiation into M2 macrophages. Expression of Arginase-1 depletes the tumor microenvironment of arginine, thereby promoting T cell death and NK cell inhibition. Schmid et. al., Proceedings: AACR 103rd Annual Meeting 2012, Cancer Research: Apr. 15, 2012; Volume 72, Issue 8, Supplement 1. […] M2 TAMs promote cancer cell survival (FIG. 23).

The test system of series [8] is M1 macrophage differentiation. In words: M1 macrophage differentiation. As to conditions: data not shown. Type of series: cell-based. The procedure: A similar experiment was performed on M1 differentiation.
In series [9] the test system is CT26 colon carcinoma. The experiment in a line: CT26 allograft colon cancer model. Type of series: in vivo, mouse. The source says: CT26 is an N-nitroso-N-methylurethane-(NNMU) induced, undifferentiated mouse colon carcinoma cell line. It is cloned to generate the cell line designated CT26.WT (ATCC CRL-2638). The syngeneic CT26 colon cancer model is established by subcutaneous implantation of CT26 cells into BALB/c mice. This model has been extensively used to study the anti-tumor activity of immunotherapies (Yu et al., Clinical Cancer Research, 2010; Daraiswamy et al., Cancer Research, 2013). […] In some embodiments, a compound provided herein can be administered alone or in combination with an anti-PD-L1.
CT26 is an N-nitroso-N-methylurethane-(NNMU) induced, undifferentiated colon carcinoma cell line. It was cloned to generate the cell line designated CT26.WT (ATCC catalog number CRL-2638). 5-6 week old female, Balb/c mice (Jackson Labs) were implanted subcutaneously with 5×10^5 CT26 cells in 200 μl PBS. CT26 cells were cultured in DMEM supplemented with 10% FBS. Dosing commenced when tumors reached an average volume of […]. Administration of the compounds was performed according to the following Table:
Isotype control (Ultra-LEAF purified rat IgG2b, k isotype control, clone RTK4530, Lot B180477, Biolegend, Cat #70640)
Anti-PD-L1 antibody (Ultra-LEAF purified anti-mouse CD274-B7H1, PD-L1-, clone 10F9G2, Lot B178331, Biolegend, Cat #124318) […]
Body weights and tumor volumes were measured three times per week.

For series [10], the system named is Cytochrome P450 isoforms. The experiment in a line: Cytochrome P450 inhibition (ADME characteristics, Table 25). As to conditions: main Cytochrome P450 isoforms. Type of series: in vitro ADME. The source says:
These properties indicate the compound's suitability for in vivo administration.

Series [11] has as its system GL-261 glioma. The experiment in a line: GL-261 glioma model, Compound BB with or without temozolomide. It counts as in vivo, mouse. As to conditions: Compound BB 15 mg/kg QD PO, from start or following temozolomide, vs vehicle. The procedure: TMZ was dosed IP 1×/day for 7 days.
Animals: C57 Albino mice (male) from Jackson Labs, n=80. Parameters Evaluated:
In life: Mice were dosed QD with Compound BB. Temozolomide was dosed QD IP, for 7 days. Tumor measurements and bodyweights were taken 2×/week, but caliper and xenogen measurements.
End point analysis: Tumors were cut in half. One half was cut in half again with ½ fixed in 10% NBF the other was frozen in OCT for frozen sections. The remaining half was processed to single cell suspention and evaluated by FACS.
PD satellite group—8 mice from the TMZ treated mice and 8 mice from the vehicle treated mice were sacrificed on day 7 post treatment. Tumors were processed to single cell suspention and evaluated by FACS.

Series [12] has as its system collagen induced arthritis. The experiment in a line: Rat collagen induced arthritis (CIA) model.

Entries after “also recorded” stand apart in the source; their conditions may differ. Like-named read-outs stand apart in the source and are kept apart here.

Consider `C[C@H](NC(=O)c1c(N)nn2cccnc12)c1cc2cccc(C#Cc3cnn(C)c3)c2c(=O)n1-c1ccccc1` [Compound BB], for which, in [1], the “Monocytic iMCs in tumor” value is “decreased”. Further, the tumor growth entry in series [2] (Compound BB alone) is given as “reduction in tumor growth”; in [2] (co-administration of Compound BB and 5-FU), “further reduction”. Further, the dose-exposure relationship result in series [3] was “dose-exposure proportionality”. Besides, the “inhibition of spleen T cell proliferation by cells isolated from tumors of treated mice” value in [4] is “less inhibitory”. Besides, the EC50 is 17 ± 17 nM in series [5] (T-cell subset CD3+, read-out: EC50 (nM), CXCL12 induced T-cell migration); 20 ± 21 nM in series [5] (T-cell subset CD4+, read-out: EC50 (nM), CXCL12 induced T-cell migration); 13 ± 15 nM in series [5] (T-cell subset CD8+, read-out: EC50 (nM), CXCL12 induced T-cell migration); 10 nM in series [5] (read-out: EC50, inhibition of CXCL12-induced CD3+ T cell migration (FIG. 8)). The “Inhibition of CXCL12-induced pAKT in T-cells (FIG. 9)” value in [6] was “more strongly than a PI3K-δ inhibitor”. In series [7], the “Differentiation of myeloid cells into M2 TAMs (ARG1 levels, FIG. 22)” value was “inhibited M2 TAM differentiation much more effectively than PI3K-δ inhibitor”. In addition, the M1 macrophage differentiation result in [8] is “did not have an observable effect”. In addition, the “MDSC expansion after cyclophosphamide treatment (FIG. 28)” value in series [9] (CT26 model, 5-9 day time frame) is reported as “decreased”. In addition, the “Monocytic iMCs (flow cytometry, FIG. 38B)” value in series [9] (CT26 subcutaneous tumors) is “monocytic iMCs were decreased”. Moreover, the CYP inhibition entry in series [10] is “does not substantially inhibit CYP; also recorded: low potential for reversible inhibition”. Further, the “Tumor volume (FIGS. 53, 54)” value in series [11] is listed as “effective in reducing the tumor volume; also recorded: significant reduction in tumor volume”. In addition, the 50% effect level in [12] (Rattus norvegicus) (ED50) was put at a dose of 2.13 mg/kg. The “Mean ankle diameter (FIG. 1)” value in [12] (rat CIA, day 9 to day 17) is “has therapeutic effects”.
